# Residues, ends and D or L forms follow the SMILES beside them. *: point of attachment. Cbz = O=C(OCc1ccccc1)*
# How the values were obtained:
# H3K36me2 [1] = details: KMS11 t(4;14) multiple myeloma cells; cited from earlier work
# NSD2-PWWP1 = biological target: T1, NSD2-PWWP1 (Homo sapiens, UniProt O96028); details: previously shown by the authors; cited from earlier work
# T1 sequence (O96028 222-286 limits assumed): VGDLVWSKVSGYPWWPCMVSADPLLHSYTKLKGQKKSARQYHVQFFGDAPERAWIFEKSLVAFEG
# KMS11 cells [2] = assay: Adhesion assay in KMS11 cells; type: cell-based; details: 25 μM, 14 days, compared to control (UNC8587)
# NSD2 and H3K36me2 [3] = assay: NSD2 and H3K36me2 immunoblot in MM1S cells; type: cell-based; details: NSD2 E1099K, 10 μM, 6 days
# MDA-MB-231 = MDA-MB-231 proliferation assay; type: cell-based; details: 20 μM, 5 days, confluency
# NSD2 and H3K36me2 [4] = assay: NSD2 and H3K36me2 immunoblot in RS411 cells; type: cell-based; details: RS411, NSD2 E1099K, 10 μM, 6 days
# HEK293 = HEK293 proliferation assay; type: cell-based; details: 20 μM, 5 days, confluency
# KMS11 cells [5] = assay: KMS11 CellTiter-Glo luminescence cell viability assay; type: cell-based; details: up to 30 μM, 8 days
# H3K36me3 = H3K36me3 immunoblot in KMS11 cells; type: cell-based
# H3K36me2 [6] = assay: H3K36me2 immunoblot in KMS11 cells; type: cell-based
# NSD1 = NSD1 (Homo sapiens, UniProt Q96L73); assay: Global proteomics and immunoblotting of NSD1 in U2OS cells; type: cell-based; details: 5 μM, 6 h proteomics, confirmed by immunoblotting
# NSD3 = biological target: T2, NSD3 (Homo sapiens, UniProt Q9BZ95); assay: Global proteomics and immunoblotting of NSD3 in U2OS cells; type: cell-based; details: 5 μM, 6 h proteomics, confirmed by immunoblotting
# T2 sequence (Q9BZ95 1-1437): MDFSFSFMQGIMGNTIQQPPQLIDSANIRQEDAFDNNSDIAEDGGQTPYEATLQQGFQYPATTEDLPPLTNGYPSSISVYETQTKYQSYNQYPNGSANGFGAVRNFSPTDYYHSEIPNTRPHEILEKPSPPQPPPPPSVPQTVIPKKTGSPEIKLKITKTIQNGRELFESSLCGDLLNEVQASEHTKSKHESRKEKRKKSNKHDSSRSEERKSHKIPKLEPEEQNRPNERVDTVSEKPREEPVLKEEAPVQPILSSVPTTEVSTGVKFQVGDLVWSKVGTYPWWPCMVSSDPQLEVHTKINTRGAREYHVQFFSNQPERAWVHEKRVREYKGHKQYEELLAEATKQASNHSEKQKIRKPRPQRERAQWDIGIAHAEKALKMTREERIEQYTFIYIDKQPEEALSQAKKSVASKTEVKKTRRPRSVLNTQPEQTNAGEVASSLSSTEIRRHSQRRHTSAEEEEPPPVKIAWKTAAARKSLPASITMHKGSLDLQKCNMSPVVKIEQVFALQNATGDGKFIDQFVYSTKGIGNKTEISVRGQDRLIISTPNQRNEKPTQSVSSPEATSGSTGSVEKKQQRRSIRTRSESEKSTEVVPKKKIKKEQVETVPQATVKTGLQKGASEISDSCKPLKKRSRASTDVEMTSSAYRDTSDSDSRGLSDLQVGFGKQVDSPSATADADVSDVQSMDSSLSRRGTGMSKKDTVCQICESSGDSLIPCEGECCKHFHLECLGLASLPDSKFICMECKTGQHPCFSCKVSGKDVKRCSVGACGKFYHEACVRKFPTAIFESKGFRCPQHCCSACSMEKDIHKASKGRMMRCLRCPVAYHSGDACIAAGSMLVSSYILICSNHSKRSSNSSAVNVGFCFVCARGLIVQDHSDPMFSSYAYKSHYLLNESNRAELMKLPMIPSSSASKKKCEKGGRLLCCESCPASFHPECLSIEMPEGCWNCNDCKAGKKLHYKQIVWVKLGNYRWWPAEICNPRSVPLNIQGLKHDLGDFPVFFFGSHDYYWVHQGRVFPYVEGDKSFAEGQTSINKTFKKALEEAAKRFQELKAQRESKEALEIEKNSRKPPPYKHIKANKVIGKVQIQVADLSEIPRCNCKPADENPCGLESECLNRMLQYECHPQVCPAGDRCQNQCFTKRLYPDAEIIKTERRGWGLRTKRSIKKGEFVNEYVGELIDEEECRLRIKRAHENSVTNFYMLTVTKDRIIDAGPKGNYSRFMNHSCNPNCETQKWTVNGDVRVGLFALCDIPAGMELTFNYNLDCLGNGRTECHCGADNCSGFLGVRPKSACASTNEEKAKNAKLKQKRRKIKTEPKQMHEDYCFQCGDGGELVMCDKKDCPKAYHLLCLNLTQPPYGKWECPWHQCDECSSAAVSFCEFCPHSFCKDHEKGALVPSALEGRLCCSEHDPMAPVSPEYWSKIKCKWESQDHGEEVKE
# [7] = biological target: T3, NanoLuc-NSD2-PWWP1 / HaloTag-Ubiquitin (Homo sapiens, UniProt O96028); assay: NanoBRET ubiquitination assay; type: cell-based; details: compared to UNC6934 or the vehicle
# T3 sequence (O96028 222-286 limits assumed): T1 sequence (O96028 222-286 limits assumed)
# NSD2-long [8] = biological target: T4, NSD2-long (Homo sapiens, UniProt O96028); assay: NSD2 immunoblot in KMS11 cells; type: cell-based; details: read-out: IB: NSD2-long DC50, 1−60 μM, 6 days
# T4 sequence (O96028 1-1365): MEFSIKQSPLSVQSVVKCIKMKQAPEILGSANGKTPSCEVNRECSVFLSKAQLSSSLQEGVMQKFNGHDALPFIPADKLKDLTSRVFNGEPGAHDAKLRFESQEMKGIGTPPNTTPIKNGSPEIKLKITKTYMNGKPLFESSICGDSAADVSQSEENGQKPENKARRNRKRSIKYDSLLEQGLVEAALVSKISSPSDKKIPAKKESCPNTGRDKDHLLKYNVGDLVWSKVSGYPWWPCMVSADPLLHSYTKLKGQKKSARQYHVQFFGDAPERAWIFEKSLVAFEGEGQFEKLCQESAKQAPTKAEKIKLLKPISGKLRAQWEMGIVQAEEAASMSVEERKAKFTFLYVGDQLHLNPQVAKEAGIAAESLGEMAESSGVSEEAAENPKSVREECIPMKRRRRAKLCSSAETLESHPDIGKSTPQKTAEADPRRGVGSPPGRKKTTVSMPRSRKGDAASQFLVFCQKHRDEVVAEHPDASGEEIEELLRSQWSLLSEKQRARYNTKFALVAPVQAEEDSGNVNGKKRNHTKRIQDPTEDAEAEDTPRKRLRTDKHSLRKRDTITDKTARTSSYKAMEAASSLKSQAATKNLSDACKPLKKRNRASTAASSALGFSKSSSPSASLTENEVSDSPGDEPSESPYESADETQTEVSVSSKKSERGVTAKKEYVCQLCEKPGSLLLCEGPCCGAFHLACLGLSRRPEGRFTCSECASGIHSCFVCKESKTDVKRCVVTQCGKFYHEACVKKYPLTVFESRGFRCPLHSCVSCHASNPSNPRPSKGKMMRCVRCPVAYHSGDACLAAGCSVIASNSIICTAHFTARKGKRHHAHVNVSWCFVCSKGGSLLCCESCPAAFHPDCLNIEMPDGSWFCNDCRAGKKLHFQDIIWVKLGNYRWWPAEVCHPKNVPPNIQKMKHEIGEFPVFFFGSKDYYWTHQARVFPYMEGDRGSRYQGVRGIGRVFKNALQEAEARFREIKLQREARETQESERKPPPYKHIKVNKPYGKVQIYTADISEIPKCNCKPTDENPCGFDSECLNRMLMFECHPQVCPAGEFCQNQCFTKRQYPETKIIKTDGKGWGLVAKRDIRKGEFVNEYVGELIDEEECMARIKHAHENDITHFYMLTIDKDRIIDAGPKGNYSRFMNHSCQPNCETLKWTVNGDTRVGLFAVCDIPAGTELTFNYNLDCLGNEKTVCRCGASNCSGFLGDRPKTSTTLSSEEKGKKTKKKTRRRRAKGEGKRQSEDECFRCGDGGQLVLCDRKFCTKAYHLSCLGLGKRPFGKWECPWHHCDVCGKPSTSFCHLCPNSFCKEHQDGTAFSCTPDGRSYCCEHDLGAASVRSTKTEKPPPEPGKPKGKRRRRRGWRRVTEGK
# NSD2 [9] = biological target: T5, NSD2 (Homo sapiens, UniProt O96028); assay: In-cell western; type: cell-based; details: U2OS cells, ICW
# T5 sequence (O96028 1-627 limits assumed): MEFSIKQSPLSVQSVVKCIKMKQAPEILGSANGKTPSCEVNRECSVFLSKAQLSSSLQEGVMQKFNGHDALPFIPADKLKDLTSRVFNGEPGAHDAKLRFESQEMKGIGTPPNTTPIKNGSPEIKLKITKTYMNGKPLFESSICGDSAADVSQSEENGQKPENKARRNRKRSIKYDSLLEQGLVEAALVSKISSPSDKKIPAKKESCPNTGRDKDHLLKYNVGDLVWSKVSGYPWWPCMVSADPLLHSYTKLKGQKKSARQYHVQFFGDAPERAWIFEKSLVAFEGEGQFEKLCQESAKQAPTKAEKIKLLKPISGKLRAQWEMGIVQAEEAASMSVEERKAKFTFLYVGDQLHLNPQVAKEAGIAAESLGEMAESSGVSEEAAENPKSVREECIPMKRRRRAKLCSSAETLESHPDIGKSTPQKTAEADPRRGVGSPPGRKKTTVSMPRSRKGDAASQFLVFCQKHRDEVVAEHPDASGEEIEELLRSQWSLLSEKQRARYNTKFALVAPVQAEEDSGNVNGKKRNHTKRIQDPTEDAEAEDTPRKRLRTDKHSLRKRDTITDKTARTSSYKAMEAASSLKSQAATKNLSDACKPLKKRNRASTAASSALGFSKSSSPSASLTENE
# H3K36me1 = H3K36me1 immunoblot in KMS11 cells; type: cell-based
# NSD family members = details: immunoblot
# NSD2-long [10] = biological target: T4, NSD2-long; assay: Western blot of NSD2 in U2OS cells; type: cell-based; details: 10 μM, without replenishing the compound
# NSD2 [11] = biological target: T5, NSD2; assay: Global proteomics; type: cell-based; details: U2OS cells, 5 μM, 6 h, 7863 quantifiable proteins
# MM1S cells = assay: MM1S dose-response treatment and proliferation assay; type: cell-based; details: increasing concentrations, 8 days, trypan blue cell count
# U2OS = U2OS proliferation assay; type: cell-based; details: 20 μM, 5 days, confluency
# NSD2 [12] = assay: MG132, MLN4924 and TAK243 inhibitor assay; type: cell-based; details: U2OS cells, 6 h, 10 μM MG132, 1 μM MLN4924 or 1 μM TAK243
# Chain of NSD1 (Q96L73 whole entry): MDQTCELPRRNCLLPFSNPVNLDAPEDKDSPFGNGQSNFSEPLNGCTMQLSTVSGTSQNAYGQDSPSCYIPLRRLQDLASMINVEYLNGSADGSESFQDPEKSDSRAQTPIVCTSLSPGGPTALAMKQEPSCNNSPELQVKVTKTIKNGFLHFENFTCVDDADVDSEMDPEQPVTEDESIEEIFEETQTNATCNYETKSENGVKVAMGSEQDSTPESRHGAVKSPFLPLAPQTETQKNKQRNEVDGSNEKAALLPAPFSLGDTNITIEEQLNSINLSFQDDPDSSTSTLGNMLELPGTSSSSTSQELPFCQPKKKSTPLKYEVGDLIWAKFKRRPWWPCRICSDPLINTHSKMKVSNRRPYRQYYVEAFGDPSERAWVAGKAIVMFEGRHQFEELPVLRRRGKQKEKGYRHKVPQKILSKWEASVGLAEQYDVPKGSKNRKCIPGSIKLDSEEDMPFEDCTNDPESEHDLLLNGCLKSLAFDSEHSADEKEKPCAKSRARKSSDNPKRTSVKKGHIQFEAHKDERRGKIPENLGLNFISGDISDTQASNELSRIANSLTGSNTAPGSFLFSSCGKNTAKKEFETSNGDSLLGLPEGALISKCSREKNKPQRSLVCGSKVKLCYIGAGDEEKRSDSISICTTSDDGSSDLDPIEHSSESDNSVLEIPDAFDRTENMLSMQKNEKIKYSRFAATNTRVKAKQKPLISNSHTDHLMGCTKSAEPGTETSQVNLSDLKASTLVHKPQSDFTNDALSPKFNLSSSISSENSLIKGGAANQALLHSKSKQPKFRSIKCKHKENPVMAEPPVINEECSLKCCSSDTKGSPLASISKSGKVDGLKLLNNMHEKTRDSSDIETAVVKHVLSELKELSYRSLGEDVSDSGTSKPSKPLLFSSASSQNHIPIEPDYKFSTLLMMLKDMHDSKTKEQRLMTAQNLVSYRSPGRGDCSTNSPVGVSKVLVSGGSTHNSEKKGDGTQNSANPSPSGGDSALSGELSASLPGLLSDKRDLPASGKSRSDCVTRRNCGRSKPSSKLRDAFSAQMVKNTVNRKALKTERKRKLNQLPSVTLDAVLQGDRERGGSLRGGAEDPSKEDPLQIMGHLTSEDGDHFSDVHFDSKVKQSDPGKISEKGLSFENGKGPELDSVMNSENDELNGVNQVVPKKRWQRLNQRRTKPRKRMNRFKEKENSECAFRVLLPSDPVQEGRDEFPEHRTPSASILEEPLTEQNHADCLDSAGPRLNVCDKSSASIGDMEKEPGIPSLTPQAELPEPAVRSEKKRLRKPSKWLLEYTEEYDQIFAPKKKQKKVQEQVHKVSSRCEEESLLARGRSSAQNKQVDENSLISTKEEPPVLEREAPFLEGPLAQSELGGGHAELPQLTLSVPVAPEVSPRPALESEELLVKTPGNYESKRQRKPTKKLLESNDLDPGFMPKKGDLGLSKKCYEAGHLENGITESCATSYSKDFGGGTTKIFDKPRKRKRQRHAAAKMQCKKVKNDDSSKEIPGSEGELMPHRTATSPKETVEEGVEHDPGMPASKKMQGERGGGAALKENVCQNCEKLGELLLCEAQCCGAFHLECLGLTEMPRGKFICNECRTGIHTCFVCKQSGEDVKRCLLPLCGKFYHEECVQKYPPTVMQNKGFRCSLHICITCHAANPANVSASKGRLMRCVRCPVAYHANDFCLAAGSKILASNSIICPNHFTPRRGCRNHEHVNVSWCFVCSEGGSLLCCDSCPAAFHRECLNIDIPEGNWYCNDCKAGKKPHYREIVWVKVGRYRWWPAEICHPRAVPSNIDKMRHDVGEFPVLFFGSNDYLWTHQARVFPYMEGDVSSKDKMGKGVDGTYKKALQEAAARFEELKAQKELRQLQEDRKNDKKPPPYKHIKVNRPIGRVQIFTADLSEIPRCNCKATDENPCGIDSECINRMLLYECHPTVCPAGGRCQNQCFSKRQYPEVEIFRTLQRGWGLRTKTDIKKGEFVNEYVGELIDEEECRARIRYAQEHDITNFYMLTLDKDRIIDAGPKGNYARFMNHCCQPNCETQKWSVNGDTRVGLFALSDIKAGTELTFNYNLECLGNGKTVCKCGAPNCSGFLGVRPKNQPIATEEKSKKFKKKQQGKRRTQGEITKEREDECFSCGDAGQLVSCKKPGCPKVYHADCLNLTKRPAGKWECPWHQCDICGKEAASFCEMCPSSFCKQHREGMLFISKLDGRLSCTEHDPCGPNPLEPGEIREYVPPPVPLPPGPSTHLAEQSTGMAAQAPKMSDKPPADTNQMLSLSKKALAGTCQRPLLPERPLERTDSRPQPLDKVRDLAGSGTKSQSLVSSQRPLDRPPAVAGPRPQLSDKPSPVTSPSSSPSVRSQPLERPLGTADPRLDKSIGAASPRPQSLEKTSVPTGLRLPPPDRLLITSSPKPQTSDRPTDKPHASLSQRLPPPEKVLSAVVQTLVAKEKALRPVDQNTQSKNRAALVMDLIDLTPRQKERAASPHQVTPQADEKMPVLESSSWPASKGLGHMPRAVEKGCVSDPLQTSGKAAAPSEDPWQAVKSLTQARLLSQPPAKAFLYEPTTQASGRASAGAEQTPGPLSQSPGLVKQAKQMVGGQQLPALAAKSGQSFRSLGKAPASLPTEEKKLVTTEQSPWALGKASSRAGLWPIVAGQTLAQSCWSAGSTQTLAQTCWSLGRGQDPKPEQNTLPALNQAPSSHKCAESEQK
smiles,measurement,setting,value
O=C1COc2cc(C(=O)N(Cc3ccc(C(=O)Nc4ccncn4)cc3)C3CC3)ccc2N1 [UNC6934],global H3K36me2 levels in KMS11 cells,H3K36me2 [1],remain unaltered
O=C(CCCC[C@@H]1SC[C@@H]2NC(=O)N[C@@H]21)NCCOCCOCCOCCOCCOCCOCCOCCOCCOCCOCCOCCNC(=O)c1ccc(NC(=O)c2ccc(CN(C(=O)c3ccc4c(c3)OCC(=O)N4)C3CC3)cc2)cc1 [UNC7096],binding to NSD2 (in words),NSD2-PWWP1,maintains binding to NSD2
NCCCCCCNC(=O)c1ccc(NC(=O)c2ccc(CN(C(=O)c3ccc4c(c3)OCC(=O)N4)C3CC3)cc2)cc1 [UNC8153],cell adhesion to Matrigel,KMS11 cells [2],Significant antiadhesive effects
same,NSD2 and H3K36me2 modulation in MM1S cells,NSD2 and H3K36me2 [3],similarly responsive
same,proliferative potential of MDA-MB-231 cells,MDA-MB-231,no significant changes in proliferative potential
same,NSD2 and H3K36me2 modulation in RS411 cells,NSD2 and H3K36me2 [4],similarly responsive
same,proliferative potential of HEK293 cells,HEK293,no significant changes in proliferative potential
same,proliferation / cell viability of KMS11 cells,KMS11 cells [5],did not result in a significant change in proliferation
same,H3K36me3 level,H3K36me3,decreased slightly
same,"H3K36me2 levels, time course","H3K36me2 [6]; 20 μM, 2−8 days, loss after 6 days, control 8 days",Significant loss of the H3K36me2 mark
same,"H3K36me2 levels, dose response","H3K36me2 [6]; 1−60 μM, 6 days",dose-dependent reduction of the H3K36me2 mark
same,degradation of NSD1,NSD1,not degraded
same,degradation of NSD3,NSD3,not degraded
same,BRET signal between HaloTag-ubiquitin and NanoLuc-NSD2-PWWP1,[7],increased BRET signals
same,DC50,NSD2-long [8],3.41 µM
same,NSD2 degradation 30 min after compound treatment,NSD2 [9]; 3 and 10 μM,~ 40%
same,hook effect in NSD2 reduction,NSD2 [9]; confirmed by immunoblotting,a hook effect occurs at high concentrations
same,H3K36me1 level,H3K36me1,increase in H3K36 monomethylation
same,selectivity for NSD2 over other NSD family members in MM1S cells,NSD family members,selectively degrades NSD2 over other NSD family members
same,extent of degradation of NSD2-long 96 h after a single treatment,NSD2-long [10],above 60%
same,selectivity of NSD2 degradation within the measurable proteome,NSD2 [11],NSD2 was selectively degraded
same,proliferation of MM1S cells,MM1S cells,mild antiproliferative effect
same,proliferative potential of U2OS cells,U2OS,no significant changes in proliferative potential
NS(=O)(=O)OC[C@@H]1C[C@@H](n2ccc3c(N[C@H]4CCc5ccccc54)ncnc32)C[C@@H]1O [MLN4924],effect of inhibitor on UNC8153-mediated NSD2 degradation,NSD2 [12],prevented NSD2 degradation
CC(C)C[C@@H](C=O)NC(=O)[C@H](CC(C)C)NC(=O)[C@H](CC(C)C)NC(=O)OCc1ccccc1 [MG132] (Cbz-Leu-Leu-Leu-aldehyde),effect of inhibitor on UNC8153-mediated NSD2 degradation,NSD2 [12],completely ablates NSD2 degradation
NS(=O)(=O)OC[C@H]1C[C@@H](Nc2ccnc3cc(-c4cccc(SC(F)(F)F)c4)nn23)[C@H](O)[C@@H]1O [TAK243],effect of inhibitor on UNC8153-mediated NSD2 degradation,NSD2 [12],prevented NSD2 degradation
